In patent US20240251801A1, “COMPOSITIONS AND METHODS FOR IMPROVING PLANT HEALTH AND CONTROLLING PLANT DISEASE” (AgBiome, Inc., priority 2021, published 2024):

How the values were obtained:
Assay type in all cases: in vivo
[1] = tested on: Colletotrichum sublineolum; assay: Detached sorghum leaf piece assay, control of anthracnose; conditions: sorghum leaf pieces, strain 1×10^8 CFU/ml, pyraclostrobin 10 ppm
Description: (§1) For detached-leaf assays performed in the following examples, bacterial strains stored in a freezer (−80° C.) were each streaked onto Luria Bertani (LB) agar (25 g LB broth and 15 g agar per liter of deionized water) in an 8.5-cm diameter plastic plate. A single colony from the plate was picked and placed in 50 ml of either LB liquid broth or a liquid broth consisting of NaCl (5 g), tryptone (10 g), nutrient broth (8 g), CaCl2 (0.14 mM), MgCl2·6H2O (0.2 mM), and MnCl2·4H2O (0.01 mM) per liter of deionized water in a 250-ml flask. Calcium chloride (CaCl2), MgCl2, and MnCl2 were filtered sterilized using 0.22 μm vacuum filter and were then added to NaCl, tryptone, nutrient broth (which were autoclaved together). Cultures were harvested after 48 h by pelleting cells and re-suspending to original volume in sterile H2O. Colony forming units (CFU/mL) were determined using standard dilution plate count method, and plates were inspected for signs of contamination. Sterile distilled water was added to achieve a final concentration needed in detached-leaf or growth chamber strain evaluations. […]
Seven days post inoculation, the leaf pieces were assessed for anthracnose severity on a scale of 0-4 according to Prom et al., 2016 (Plant Path J. 15(1): 11-16), with few modifications. […] Data was analyzed using analysis of variance (ANOVA) in JMP® (version 14.0.0; SAS Institute Inc., Cary, NC). […]

Podosphaera xanthii [2] = assay: Squash leaf disc assay, control of powdery mildew on cucurbits; conditions: squash leaf discs, bacterial suspension 200 μL, tebuconazole 10 ppm
Description: as §1, with “contamination.” for “contamination. Sterile distilled water was added to achieve a final concentration needed in detached-leaf or growth chamber strain evaluations.”
Leaf disks were inoculated on the treated leaf surface by spraying a conidial suspension (1×10^6 conidia/ml of sterile distilled water) of P. xanthii (an isolate obtained from Dr. McGrath laboratory, Cornell University). […] The number of powdery mildew colonies were also recorded for each treatment. […] Data was analyzed in SAS JMP version 14.0.

Podosphaera xanthii [3] = assay: Squash leaf disc assay with wettable powder formulations, control of powdery mildew; conditions: squash leaf discs, 150 μL, tebuconazole 10 ppm as control
Description: For the tray drying method, 829 grams of cell paste obtained from a liquid culture of ATP15329 was mixed with 18.24 g of glycerol and 72.95 g of microcel E using a food processor. Half of the cell paste was dried at 40° C. to a water activity of less than 0.30, at which time it contained 3.53E11 CFU/g. The other half was dried at 25° C. and 50% RH to a water activity of less than 0.6, at which time it contained 4.75E11 CFU/g. The dried powder formulation was stored in heat sealed mylar pouches at 4° C.
For the spray drying method, 200 grams of cell paste obtained from a liquid culture of ATP15329 was mixed with 22 g of skim milk powder using an emulsion blender. This material was spray dried at outlet temperature of 70° C., at which time it contained 7.86E10 CFU/g. The dried powder formulation was stored in heat sealed mylar pouches at 4° C.
This evaluation followed the protocol used in Example 3. Briefly, leaf disks were each sprayed with 150 μL of different formulations of the bacterial strain AIP015329, tebuconazole 10 ppm (fungicide control) on the adaxial surface 24 hours before inoculation with the fungal pathogen. After treatment, leaf disks were incubated in the dark for 24 hours at 23° C.
Leaf disks were inoculated on the treated leaf surface by spraying a conidial suspension (1×10^6 conidia/ml of sterile distilled water) of P. xanthii. Inoculated and non-inoculated/not treated controls were added. Treatments were placed into sealed clear plastic boxes and incubated for six days at 25° C. with a relative humidity of 80% and a 12 h photoperiod. Each treatment was rated on a disease severity scale from 0 to 4, with 0 being no symptoms and 4 being greater than 50% of the leaf disk covered with colonies. The number of powdery mildew colonies were also recorded for each treatment. This experiment was run once, with each treatment replicated three times. Data was analyzed in SAS JMP version 14.0.

Mycosphaerella fijiensis = assay: Grand Nain (Musa) leaf piece assay, control of black sigatoka; conditions: Grand Nain leaf pieces, strain 1×10^8 CFU/ml, mancozeb 10 ppm
Description: as §1
Data recorded were the most progressed stage on inoculated leaves, 3 to 4 weeks after inoculation (Stover 1986). Data were analyzed using analysis of variance (ANOVA) in PROC GLM of SAS (version 9.4; SAS Institute Inc., Cary, NC) and significant differences (P<0.05) were observed among treatments.

Molecule: COC(=O)N(OC)c1ccccc1COc1ccn(-c2ccc(Cl)cc2)n1 [Pyraclostrobin]
- Disease Control (%) Confirmation ([1]; confirmation screen with freshly grown culture): 79.2 (a) %
- Disease Control (%) Primary Screen ([1]; treated 24 h before inoculation, rated 7 days post inoculation): 95.2 (a) %

Molecule: CC(C)(C)C(O)(CCc1ccc(Cl)cc1)Cn1cncn1 (stereo not drawn) [Tebuconazole, tebuconazole]
- Disease Control (%) Confirmation (Podosphaera xanthii [2]; confirmation): 75.0 (a) %
- Disease Control (%) Primary Screen (Podosphaera xanthii [2]; treated 24 h before inoculation, six days incubation): 87.5 (a) %
- Disease Control (%) Spray dry (Podosphaera xanthii [3]; spray dried formulation of the strain): 96.0 (a) %
- Disease Control (%) Tray dry Dried at 25° C. (Podosphaera xanthii [3]; tray dried formulation dried at 25° C.): 96.0 (a) %
- Disease Control (%) Tray dry Dried at 40° C. (Podosphaera xanthii [3]; tray dried formulation dried at 40° C.): 96.0 (a) %

Molecule: mancozeb
- Disease Control (%) Primary Screen (Mycosphaerella fijiensis; 3 to 4 weeks after inoculation): 92.3 (a) %
- Disease Control (%) Confirmation (Mycosphaerella fijiensis; confirmation): 81.0 (a) %
